Measured values: patent US11597703B2, “Caspase inhibitors and methods of use thereof” (Histogen Inc., priority 2019, dated 2023)

What was measured:
[1] = target: T1, Caspase-1 (Homo sapiens, UniProt P29466); assay: Caspase-1 enzyme inhibition assay (Ac-YVAD-pNA substrate), IC50; assay type: biochemical
T1 construct: purchased Enzo Biosciences
T1 sequence (P29466 120-297 limits assumed): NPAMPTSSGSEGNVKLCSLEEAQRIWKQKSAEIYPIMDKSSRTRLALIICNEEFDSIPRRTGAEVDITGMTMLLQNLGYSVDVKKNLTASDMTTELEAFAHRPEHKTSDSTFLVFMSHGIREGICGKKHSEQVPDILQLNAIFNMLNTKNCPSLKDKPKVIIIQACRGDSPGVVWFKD
T1 sequence (P29466 317-404 limits assumed): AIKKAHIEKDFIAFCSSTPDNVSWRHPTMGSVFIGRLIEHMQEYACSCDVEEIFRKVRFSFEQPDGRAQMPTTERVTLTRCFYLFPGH
In short: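 Buffer was 50 mM HEPES pH 7.4, 100 mM NaCl, 0.1% CHAPS, 1 mM EDTA, 10% glycerol and 10 mM DTT. Caspase-1 was reacted with 200 μM Ac-YVAD-pNA (final). Release of p-nitroaniline was followed continuously at 405 nm, and rates were taken from the linear slope (ε 10,500 M-1 cm-1).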

[2] = test system: IL-1β; assay: Inhibition of LPS-stimulated IL-1β in THP-1 cells (ELISA); assay type: cell-based, human; conditions: Homo sapiens, 10 micromolar, read-out: Percent Inhibition of IL1-β
[3] = target: T2, Caspase-3 (Homo sapiens, UniProt P42574); assay: Caspase-3 enzymatic inhibition assay, IC50; assay type: biochemical; conditions: read-out: Caspase 3 enzyme inhibition IC50
T2 construct: purchased Enzo Biosciences
T2 sequence (P42574 29-175 limits assumed): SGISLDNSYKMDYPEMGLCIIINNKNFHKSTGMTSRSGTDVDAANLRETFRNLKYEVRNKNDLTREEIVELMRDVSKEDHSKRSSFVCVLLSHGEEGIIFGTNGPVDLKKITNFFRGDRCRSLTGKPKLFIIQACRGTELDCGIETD
T2 sequence (P42574 176-277 limits assumed): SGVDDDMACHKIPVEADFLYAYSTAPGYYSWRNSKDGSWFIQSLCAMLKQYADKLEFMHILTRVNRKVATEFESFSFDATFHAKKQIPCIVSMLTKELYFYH
In short: (§1)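 Commercially sourced human caspases. Activity assays followed the maker's instructions for caspase-3, 6 and 7. Potency given as IC50.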

[4] = target: T3, Caspase 7 (Homo sapiens, UniProt P55210); assay: Caspase 7 enzymatic inhibition assay, IC50; assay type: biochemical; conditions: read-out: Caspase 7 enzyme inhibition IC50
T3 construct: purchased Enzo Biosciences
T3 sequence (P55210 24-198 limits assumed): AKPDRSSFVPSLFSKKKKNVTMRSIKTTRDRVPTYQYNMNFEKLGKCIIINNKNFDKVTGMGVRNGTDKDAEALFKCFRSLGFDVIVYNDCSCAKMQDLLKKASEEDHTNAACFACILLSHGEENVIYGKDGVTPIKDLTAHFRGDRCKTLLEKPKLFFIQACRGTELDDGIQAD
T3 sequence (P55210 207-303 limits assumed): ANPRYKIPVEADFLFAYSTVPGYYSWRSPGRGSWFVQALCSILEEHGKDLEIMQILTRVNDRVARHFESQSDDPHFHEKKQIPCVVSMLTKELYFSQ
In short: as §1

Structure (SMILES): C[C@H](NC(=O)C(=O)Nc1c(F)cccc1F)C(=O)N[C@@H](CCC(=O)O)C(=O)COc1c(F)c(F)cc(F)c1F [Example 6, (S)-4-((S)-2-(2-((2,6-Difluorophenyl)amino)-2-oxoacetamido)propanamido)-5-oxo-6-(2,3,5,6-tetrafluorophenoxy)hexanoic acid]
- IC50 [1]: ≤ 0.01 µM
- inhibition at 10 µM [2]: > 90%
- IC50 [3]: ≥ 1 µM
- IC50 [4]: ≥ 1 µM
